Test results from ChEMBL document CHEMBL1155275, “Synthesis and characterization of 6-deoxy-6-fluoro-D-fructose as a potential compound for imaging breast cancer with PET” (Bioorg Med Chem, 2009).

Key:
Type in all cases: cell-based
[1] = target: T1, Solute carrier family 2, facilitated glucose transporter member 2 (Homo sapiens, UniProt P11168); test: Inhibition of GLUT2-mediated [14C]D-glucose uptake in human MCF7 cells by liquid scintillation counting
T1 sequence (P11168 whole entry): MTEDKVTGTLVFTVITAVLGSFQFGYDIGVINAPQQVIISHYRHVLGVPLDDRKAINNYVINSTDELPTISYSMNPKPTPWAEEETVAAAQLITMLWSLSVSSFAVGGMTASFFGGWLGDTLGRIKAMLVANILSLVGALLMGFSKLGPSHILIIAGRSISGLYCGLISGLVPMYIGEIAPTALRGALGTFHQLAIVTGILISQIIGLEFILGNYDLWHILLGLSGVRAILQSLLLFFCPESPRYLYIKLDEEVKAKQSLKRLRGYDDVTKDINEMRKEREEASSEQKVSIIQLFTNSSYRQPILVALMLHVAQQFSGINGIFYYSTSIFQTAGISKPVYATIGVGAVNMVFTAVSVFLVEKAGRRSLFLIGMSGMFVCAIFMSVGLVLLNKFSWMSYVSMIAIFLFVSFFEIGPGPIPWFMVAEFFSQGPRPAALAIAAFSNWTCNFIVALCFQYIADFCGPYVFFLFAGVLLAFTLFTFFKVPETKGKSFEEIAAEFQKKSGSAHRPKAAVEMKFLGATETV

[2] = target: T1, Solute carrier family 2, facilitated glucose transporter member 2; test: Inhibition of GLUT2-mediated [14C]D-glucose uptake in human MDA-MB-231 cells by liquid scintillation counting
[3] = target: T2, Solute carrier family 2, facilitated glucose transporter member 5 (Homo sapiens, UniProt P22732); test: Inhibition of GLUT5-mediated [14C]D-fructose uptake in human MCF7 cells by liquid scintillation counting
T2 sequence (P22732 whole entry): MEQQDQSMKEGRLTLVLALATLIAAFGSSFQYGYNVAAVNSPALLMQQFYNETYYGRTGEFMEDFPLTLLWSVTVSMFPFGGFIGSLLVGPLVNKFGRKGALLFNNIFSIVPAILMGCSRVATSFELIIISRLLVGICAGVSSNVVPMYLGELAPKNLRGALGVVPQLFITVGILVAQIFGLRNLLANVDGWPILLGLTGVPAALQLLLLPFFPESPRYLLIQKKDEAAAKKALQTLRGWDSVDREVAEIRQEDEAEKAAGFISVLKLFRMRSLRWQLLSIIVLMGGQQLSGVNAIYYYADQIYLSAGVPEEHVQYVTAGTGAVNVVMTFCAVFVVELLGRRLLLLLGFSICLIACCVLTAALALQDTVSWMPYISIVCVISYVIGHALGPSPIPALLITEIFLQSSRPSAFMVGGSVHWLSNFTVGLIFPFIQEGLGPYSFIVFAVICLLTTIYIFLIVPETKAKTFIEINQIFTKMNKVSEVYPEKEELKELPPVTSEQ

[4] = target: T2, Solute carrier family 2, facilitated glucose transporter member 5; test: Inhibition of GLUT5-mediated [14C]D-fructose uptake in human MDA-MB-231 cells by liquid scintillation counting

Question: With `OCC1(O)O[C@H](CF)[C@@H](O)[C@@H]1O` (some centres undefined) as the compound, how does the Ki [1] read?
Answer: 916 µM

Question: And the Ki [2]?
Answer: 6210 µM

Question: What about the Ki [3] of the same compound?
Answer: 154 µM

Question: And the Ki [4]?
Answer: 330 µM
